The values below come from patent publication US20080039442A1, “Compounds With Kv4 Ion Channel Activity” (Devgen NV, priority 2004, published 2008).

Usually melting point stands for the temperature of the solid-liquid transition. What is called IC50 is the concentration needed to halve the response being measured.

Data set [1] concerns the target T1, human Kv4.3/KChIP2.2 potassium channel (Homo sapiens, UniProt Q9UK17).
T1 construct: expressed in transfected cells
T1 sequence (Q9UK17 1-655): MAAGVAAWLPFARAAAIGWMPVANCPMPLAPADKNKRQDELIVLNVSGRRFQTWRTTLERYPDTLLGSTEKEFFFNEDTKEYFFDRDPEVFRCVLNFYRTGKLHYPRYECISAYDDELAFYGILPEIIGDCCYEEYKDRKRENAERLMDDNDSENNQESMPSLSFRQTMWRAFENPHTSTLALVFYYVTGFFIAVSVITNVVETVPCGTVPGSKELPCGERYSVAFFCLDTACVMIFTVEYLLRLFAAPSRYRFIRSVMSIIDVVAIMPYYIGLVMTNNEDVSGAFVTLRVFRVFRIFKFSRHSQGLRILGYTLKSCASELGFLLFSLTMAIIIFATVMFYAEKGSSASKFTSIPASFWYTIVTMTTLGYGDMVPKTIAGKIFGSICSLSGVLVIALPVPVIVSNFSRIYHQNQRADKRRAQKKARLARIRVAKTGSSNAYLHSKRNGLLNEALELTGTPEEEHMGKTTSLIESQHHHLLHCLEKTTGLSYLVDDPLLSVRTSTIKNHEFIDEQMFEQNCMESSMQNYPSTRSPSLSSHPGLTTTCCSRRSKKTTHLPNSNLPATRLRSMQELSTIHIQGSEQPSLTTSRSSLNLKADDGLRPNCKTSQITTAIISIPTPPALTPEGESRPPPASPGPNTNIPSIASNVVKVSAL
T1 sequence (Q9NS61 1-270 partner): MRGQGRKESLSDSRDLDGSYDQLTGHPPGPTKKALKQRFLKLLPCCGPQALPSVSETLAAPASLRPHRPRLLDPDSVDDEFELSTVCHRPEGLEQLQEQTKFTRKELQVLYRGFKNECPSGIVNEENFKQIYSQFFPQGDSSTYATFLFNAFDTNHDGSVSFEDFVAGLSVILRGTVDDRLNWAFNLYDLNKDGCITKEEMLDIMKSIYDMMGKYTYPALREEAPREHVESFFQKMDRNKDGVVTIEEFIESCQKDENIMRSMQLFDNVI
The data set is described as follows: Whole cell patch clamp, CHO-K1 cells stably expressing Kv4.3/KChIP2.2. Type of data set: cell-based. The settings on record: for remaining activity at 1 µM: CHO-K1. An outline of the steps:
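Whole-cell patch clamp at 20-25 °C, bath pH 7.4 with 4 mM KCl, pipette 130 mM KCl/10 mM EGTA/5 mM Na2ATP. Compound at […] (≤0.1% DMSO), n=2; pulses from −100 mV to +40 mV for 300 ms at 0.1 Hz, P/n (n=5) leak-corrected, cells with 1–50 nA currents only.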
A general note: Patch clamp records ionic current or voltage across a cell membrane.

A further data set concerns the target hERG potassium channel (Homo sapiens, UniProt Q12809). The data set is described as follows: Whole cell patch clamp, HEK 293 T-REx HERG cells.
Another data set has as its target T2, human Kv4.3 (Homo sapiens, UniProt Q9UK17).
T2 construct: expressed in transfected cells; host or cells: transgenic C. elegans strain UG1755 (plasmid pGV8 integrated; expression in the pharynx)
T2 sequence (Q9UK17 1-655): T1 sequence (Q9UK17 1-655)
The data set is described as follows: Electropharyngeogram (EPG) analysis of dissected pharynxes of transgenic C. elegans strain UG1755. It counts as ex vivo, transgenic C. elegans expressing human Kv4.3. On the procedure:
The method to describe the construction of a transgenic C. elegans strain expressing human Kv4.3 has been described in WO 03/097682. Briefly, the actual used strain UG1755 has been generated by microinjection into the gonad of a wild-type strain N2 with a mix of 5 ng/μl plasmid pGV8 (human Kv4.3), 20 ng/μl pDW2821 (GFP-marker) and 40 ng/μl genomic C. elegans DNA. Transgenic animals have been isolated and submitted to integration of the extra-chromosomal array into the genome of C. elegans. A line with 50% transmission of the functional expressed human Kv4.3 has been mutagenized with gamma irradiation using a Cobalt source. About 12000 F2 animals have been singled out and their progeny has been screened for the 100% transmission of the GFP marker. Lines with 100% transmission of GFP have been considered as potentially integrated. These lines have been further tested and out-crossed with N2 strain two-times. All lines obtained have been tested for viability, GFP and human Kv4.3 expression. At the end of a selection process, UG1755 was identified as most suitable C. elegans strain amenable to high throughput screening (HTS). […] Briefly, dissected pharynxes of UG1755 C. elegans animals have been prepared and Electropharyngeograms (EPGs) have been recorded using an Axopatch-1D amplifier (Axon instruments). […] The number of ultra short EPGs (10-20 ms) and normal EPGs (100-200 ms) has been analyzed and given as ratio in percentage. […] In addition standard qRT-PCR confirmed the presence of the human Kv4.3 transgene in UG1755 as well as human Kv4.3 protein has been detected with the human Kv4.3 antibody P 0358 in the pharynx of UG1755 animals.
Introducing the human Kv4.3 channel into the C. elegans pharynx influences the C. elegans action potential in a characteristic fashion. […] The pumping end-point can be technically translated into a high-throughput read-out by the use of a pro-fluorescent dye. […] After a defined incubation period, the change of fluorescence intensity in the intestine can be measured with a plate reader.

[2] abbreviates: read-out: Kv4.3 charge in %: remaining current measured after application of the compound and relative to the blank.
[3] abbreviates: read-out: Kv4.3 peak in %: remaining peak height measured after application of the compound and relative to the blank.

The structures appear in SMILES notation. Read-outs that look alike come from different tables or passages of the source.

Chain of hERG potassium channel (Q12809 whole entry): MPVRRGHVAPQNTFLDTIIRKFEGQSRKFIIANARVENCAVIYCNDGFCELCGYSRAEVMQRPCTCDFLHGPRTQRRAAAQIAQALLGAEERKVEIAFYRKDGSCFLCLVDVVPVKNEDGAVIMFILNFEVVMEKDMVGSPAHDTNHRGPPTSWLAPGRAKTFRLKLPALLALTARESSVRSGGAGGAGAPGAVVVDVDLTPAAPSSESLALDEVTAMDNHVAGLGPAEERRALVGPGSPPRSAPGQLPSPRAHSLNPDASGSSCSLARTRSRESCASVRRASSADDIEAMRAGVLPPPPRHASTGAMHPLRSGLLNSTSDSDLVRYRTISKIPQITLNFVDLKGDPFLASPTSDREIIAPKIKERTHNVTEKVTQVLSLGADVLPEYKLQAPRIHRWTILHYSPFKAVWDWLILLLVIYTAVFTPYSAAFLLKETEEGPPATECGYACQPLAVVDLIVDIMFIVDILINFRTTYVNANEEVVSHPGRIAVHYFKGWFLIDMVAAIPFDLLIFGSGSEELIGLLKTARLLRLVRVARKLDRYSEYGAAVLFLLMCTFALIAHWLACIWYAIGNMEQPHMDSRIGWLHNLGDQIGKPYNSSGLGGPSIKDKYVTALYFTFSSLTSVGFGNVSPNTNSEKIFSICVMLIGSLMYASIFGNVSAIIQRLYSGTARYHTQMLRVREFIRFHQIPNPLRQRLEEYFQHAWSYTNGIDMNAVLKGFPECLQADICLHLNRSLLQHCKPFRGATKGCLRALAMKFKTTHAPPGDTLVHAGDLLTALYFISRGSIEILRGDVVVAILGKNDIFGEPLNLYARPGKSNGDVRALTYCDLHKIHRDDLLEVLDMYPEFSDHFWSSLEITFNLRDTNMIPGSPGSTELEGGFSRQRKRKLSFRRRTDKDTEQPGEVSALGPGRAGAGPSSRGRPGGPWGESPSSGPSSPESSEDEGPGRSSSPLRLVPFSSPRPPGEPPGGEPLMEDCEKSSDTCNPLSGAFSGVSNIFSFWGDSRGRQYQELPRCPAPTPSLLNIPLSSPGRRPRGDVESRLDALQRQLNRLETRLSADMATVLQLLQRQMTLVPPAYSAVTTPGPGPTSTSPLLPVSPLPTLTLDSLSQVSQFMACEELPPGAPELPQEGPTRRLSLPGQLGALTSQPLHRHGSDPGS
Description for hERG potassium channel: For this experiment HEK 293 T-REx HERG cells (#23) were used. This cell line made by IonGate is characterized by the inducible expression of the hERG gene. The T-REx™ System (Invitrogen, Karlsruhe, Germany) is a tetracycline-regulated mammalian expression system that uses regulatory elements from the E. coli Tn10-encoded tetracycline (Tet) resistance operon. In the absence of Tet the expression is repressed. Tetracycline regulation in the T-REx™ System is based on the binding of tetracycline to the Tet repressor and derepression of the promoter controlling expression of the hERG gene. Addition of Tet to the cell culture media results in expression of the hERG potassium channel.
To construct the HEK 293 T-REx HERG cell line, the hERG gene was ligated into the inducible expression vector pcDNA4/TO (→pc4TO-HERG) and transfected into HEK 293 T-REx cells (this cell line stably expresses the Tet repressor and was purchased at Invitrogen). Stable cell clones were isolated after selection with Blasticidin (5 μg/ml) and Zeocin™ (300 μg/ml). The clones were electrophysiological characterized after induction with 1 μg/ml Tet.
Experiments were performed using the patch clamp set-up. Technical equipment needed for manipulation of the cells was placed on a vibration-isolated table and shielded with a Faraday cage to minimize electrical noise. The amplifier and control system were placed in a rack outside the Faraday cage. The system consisted of an EPC9 or EPC10 patch clamp amplifier (HEKA, Lambrecht, Germany), and the perfusion system DADVC8 (ALA Scientific, New York, USA) controlled by the Pulse software package (HEKA, Lambrecht, Germany) installed on a personal computer.
The cells used for this experiment were kept in continuous culture under standard conditions (37° C., air supplemented with 5% CO2). The HEK 293 T-REx HERG cells were kept in minimal essential medium (MEM) supplemented with 100 U/ml Penicillin, 100 μg/ml Streptomycin, 10% fetal calf serum (FCS), 1% non-essential amino acids (NEAA), 2.5 μg/ml amphotericin, 300 μg/ml Zeocin™ and 5 μg/ml Blasticidin. Cells were passed every 3-4 days after detachment using a Trypsin solution. The quality of the cultured cells was guaranteed by vitality and contamination tests.
At least 18 hours prior to electrophysiological experiments the cells were detached by application of iced PBS (phosphate buffered saline) or Trypsin and replated on cover slips. 1 μg/ml Tet was added to the cells to induce hERG expression.
Activity of the cardiac hERG channel was investigated using the patch clamp technique in its whole cell mode. This means that the current needed for clamping the whole cell expressing the K^+-channel protein to a specific potential was measured. The pipettes used for patch clamping were made of borosilicate glass. Measurements were performed at room temperature (20-25° C.). In each experiment (i.e. each cell) only one concentration of the compound was investigated—no cumulative dosages were performed. Each cell acted as its own control. The effect of the compounds on hERG mediated currents was investigated at one concentration (10 μM) with two replicates each (c=1, n=2).
Between voltage pulses the cell was clamped to a holding potential of −80 mV (inside).
(b) and (c) were used to characterize the properties of the hERG channel and to check the quality of the individual patch clamp experiment (voltage control). Each test protocol consisted of 6 segments.

For `O=C(NCc1ccc2c(c1)OCO2)c1cc2cc(Cl)ccc2o1` [Compound 92], the melting point is 144 to 145.9 °C. For the same compound, the remaining activity at 1 µM in data set [1] (setting [2]) is 64%. The remaining activity at 1 µM in data set [1] (setting [3]) worked out at 91%. Besides, the “hERG (%)” value at hERG potassium channel (at 1 μM) was 88% at 1 μM.
Consider `Nc1ccncc1` [4-aminopyridine], for which the “ultra short action potentials of the human Kv4.3 transgenic C. elegans pharynx (result in words)” value on human Kv4.3 is recorded as “restored to normal action potentials”.
For the compound `N#CCCN(Cc1ccccc1)C(=O)c1cc2cc(Cl)ccc2o1` [Compound 109, 5-chloro-benzofuran-2-carboxylic acid benzyl-(2-cyano-ethyl)-amide], the results for the remaining activity at 1 µM in data set [1] (setting [2]) and in data set [1] (setting [3]) were 74% and 97%, respectively. For the same compound, the “hERG (%)” value on hERG potassium channel (10 μM) is reported as 34%.
In turn, `COc1ccc(CNC(=O)c2cc3cc(Cl)ccc3n2C)c(OC)c1` [Compound 19, 5-chloro-1-methyl-1H-indole-2-carboxylic acid 2,4-dimethoxy-benzylamide] had a melting point of 150.8 to 152.7 °C. The remaining activity at 1 µM in data set [1] (setting [2]) was 44%. For the same compound, in data set [1] (setting [3]), the remaining activity at 1 µM is 87%. The “hERG (%)” value on hERG potassium channel (10 μM) turned out to be 35%.
Consider `COc1ccc(CNC(=O)c2oc3ccccc3c2-n2cccc2)c(OC)c1` [Compound 18, 3-pyrrol-1-yl-benzofuran-2-carboxylic acid 2,4-dimethoxy-benzylamide], for which the melting point lay within 46 to 51.8 °C. In addition, the remaining activity at 1 µM in data set [1] (setting [2]) came to 45%. Further, in data set [1] (setting [3]), the remaining activity at 1 µM was found to be 88%. For the same compound, the “hERG (%)” value on hERG potassium channel (10 μM) worked out at 41%.
Taken in the same sequence, the figures for `COc1ccc(CNC(=O)c2oc3ccc(Cl)cc3c2C)c(OC)c1` [Compound 16, 5-choro-3-methyl-benzofuran-2-carboxylic acid 2,4-dimethoxy-benzylamide] were 139.8 to 140.4 °C, 24%, 88% and 47%.
Taken in the same sequence, the figures for `COc1ccc(CNC(=O)c2oc3ccccc3c2C)c(OC)c1` [Compound 43, 3-methyl-benzofuran-2-carboxylic acid 2,4-dimethoxy-benzylamide] were 110.7 to 111.5 °C, 70%, 94% and 61%.
On to `COc1ccc(CNC(=O)c2sc3ccc(Cl)cc3c2C)c(OC)c1` [Compound 21], for which the melting point was 146.8 to 147.8 °C. Moreover, the remaining activity at 1 µM in data set [1] (setting [2]) was 50%. Besides, the remaining activity at 1 µM in data set [1] (setting [3]) came out at 92%. Moreover, at hERG potassium channel (10 μM), the “hERG (%)” value came to 100%.
`O=C(NCC1CCCCN1)c1cc(OCC(F)(F)F)ccc1OCC(F)(F)F` (stereo not shown) [Flecainide]: the “ultra short action potentials of the human Kv4.3 transgenic C. elegans pharynx (result in words)” value on human Kv4.3 is listed as “restored to normal action potentials”. For the same compound, the “After Application of Compound Ratio Ultra short to Normal EPGs in %” value on human Kv4.3 (strain UG1755, 100 μM, n = 15, before application 83 ± 13) came to 53 ± 24%.
Turning to `O=C(OCc1ccccc1)c1cc2cc(Cl)ccc2o1` [Compound 44, 5-chloro-benzofuran-2-carboxylic benzyl ester], the melting point was 76.9 to 77.3 °C. Moreover, the remaining activity at 1 µM in data set [1] (setting [2]) came out at 45%. In addition, the remaining activity at 1 µM in data set [1] (setting [3]) worked out at 80%. The “hERG (%)” value at hERG potassium channel (10 μM) is reported as 28%.
Regarding `CN(CCCN1c2ccccc2CCc2ccccc21)C(=O)c1cc2cc(Cl)ccc2o1` [Compound 4, 5-chloro-benzofuran-2-carboxylic acid [3-(10,11-dihydro-dibenzo[b,f]azepin-5-yl)-propyl]-methyl-amide], the IC50 in data set [1] (Table 12, read-out: Kv4.3 charge IC50) is 3.81 µM; at hERG potassium channel it was 20 µM. The “Ratio hERG/Kv4.3” value on hERG potassium channel (selectivity Kv4.3 vs hERG, patch clamp) amounted to 5.2.
